Where two headings read alike, the source gives them in different places.
How the values were obtained:
Pseudomonas aeruginosa = test: USP <51> AET in cosmetic cream/composition; format: cell-based; conditions: for AET microorganism count: 48 hrs-28 days; for Log Reduction from Initial Microorganism Inoculum: 14, 28 Days
Bacillus coagulans = test: Colony formation, population weight and percent transmittance with MSM; format: cell-based; conditions: 546 nm, 25x25 mm agar section, 1.0, 2.5, 5.0% MSM
Protocol: The microorganisms were grown for 72 hours in 30 milliliters of tryptic soy broth. At the end of the 72 hours, the broth was measured for colony formation, with photographic documentation of colony formation on tryptic soy agar. Percent transmittance was also measured on a 25 mm×25 mm area of the tryptic soy agar placed between two microscope slides in a spectrophotometer.
For the Bacillus coagulans, the organism was isolated and grown for 24 hours before harvesting. The harvested microorganism was placed into a sterile 100 mL bottle called dilution A. Dilution A was further diluted into one working solution, with a count of 210 Bacillus coagulans per 1 mL, called dilution B. One milliliter of Dilution B was used to inoculate the 30 mL of TSB concentrations stated above.
Each dilution for the microorganism was plated in triplicate for each sample. To capture the appropriate colonies per milliliter, the microorganism was plated at six different dilutions.
The population count was based on the dilution of the tryptic soy broth after 72 hours and inoculation on to tryptic soy agar plates. The plates were incubated for 48 hours and enumerated.
The tryptic soy broth after 72 hours was centrifuged down in a conical vial. The supernatant was pulled off and the pellet was washed. The centrifuging and washing was repeated three times. […] Each vial was weighed empty and recorded. […]

[1] = tested on: MDCK cells (ATCC # CCL-34); test: Cytotoxicity of MSM; format: cell-based, Canis; conditions: for Test Product Cytotoxicity (CPE): MDCK
From the text: Determination of test product cytotoxicity.
B. Toxicity Control for Pre-Treatment Test.

[2] = tested on: Bifidobacterium bifidum ATCC #29521; test: Growth in MRS broth + L-cysteine fortified with MSM
[3] = tested on: normal flora found in the product; conditions: for Log Growth: rows 0.5-10% MSM

Methylsulfonylmethane [MSM]
AET microorganism count (Pseudomonas aeruginosa; 10% MSM in Preservative Free Cosmetic Composition #1, 48 hours after inoculation): 7.3 × 10^3
AET microorganism count (Pseudomonas aeruginosa; 10% MSM in Preservative Free Cosmetic Composition #1, 7 days after inoculation): <10
AET microorganism count (Pseudomonas aeruginosa; 10% MSM in cosmetic cream without preservative): <10
Log Reduction from Initial Microorganism Inoculum (Pseudomonas aeruginosa; 10% MSM in preservative-free jojoba cream): 5.3 log
Log Reduction from Initial Microorganism Inoculum (Pseudomonas aeruginosa; 10% MSM, Composition #1): 5.8 log
Log Reduction from Initial Microorganism Inoculum (Pseudomonas aeruginosa; 10% MSM, Composition #2): 5.8 log
Percent Transmittance (Bacillus coagulans; 1.0% MSM): 51.5%
Percent Transmittance (Bacillus coagulans; 5.0% MSM): 45.6%
Test Product Cytotoxicity (CPE) ([1]; 0.5%): 00
Test Product Cytotoxicity (CPE) ([1]; 1%): 00
Test Product Cytotoxicity (CPE) ([1]; 2%): 00
Test Product Cytotoxicity (CPE) ([1]; 3%): 00
Test Product Cytotoxicity (CPE) ([1]; 4%): 00
Test Product Cytotoxicity (CPE) ([1]; 5%): 00
cytotoxic effect ([1]; MSM 6% through 0.5%): no visible cytotoxic effect
TC50 ([1]; kills 50% of uninfected cells): approximately 7%
Log Growth of Bifidobacteruim bifidum in Media Fortified with MSM ([2]; 0.125% MSM, Hr 0): 1.12 logs
Log Growth of Bifidobacteruim bifidum in Media Fortified with MSM ([2]; 0.125% MSM, Hr 8): 2.89 logs
Log Growth of Bifidobacteruim bifidum in Media Fortified with MSM ([2]; 0.125% MSM, Hr 16): 7.85 logs
Log Growth of Bifidobacteruim bifidum in Media Fortified with MSM ([2]; 0.125% MSM, Hr 24): 9.06 logs
Log Growth of Bifidobacteruim bifidum in Media Fortified with MSM ([2]; 0.125% MSM, Hr 32): 11.45 logs
Log Growth of Bifidobacteruim bifidum in Media Fortified with MSM ([2]; 0.125% MSM, Hr 40): 10.80 logs
Log Growth of Bifidobacteruim bifidum in Media Fortified with MSM ([2]; 0.125% MSM, Hr 48): 8.22 logs
Log Growth of Bifidobacteruim bifidum in Media Fortified with MSM ([2]; 0.125% MSM, Hr 56): 7.25 logs
Log Growth of Bifidobacteruim bifidum in Media Fortified with MSM ([2]; 0.125% MSM, Hr 64): 8.86 logs
Log Growth of Bifidobacteruim bifidum in Media Fortified with MSM ([2]; 0.125% MSM, Hr 72): 6.59 logs
Log Growth of Bifidobacteruim bifidum in Media Fortified with MSM ([2]; 0.125% MSM, Hr 80): 9.12 logs
Log Growth of Bifidobacteruim bifidum in Media Fortified with MSM ([2]; 0.125% MSM, Hr 88): 9.12 logs
Log Growth of Bifidobacteruim bifidum in Media Fortified with MSM ([2]; 0.125% MSM, Hr 96): <6.00 logs
Log Growth of Bifidobacteruim bifidum in Media Fortified with MSM ([2]; 0.5% MSM, Hr 0): 1.00 logs
Log Growth of Bifidobacteruim bifidum in Media Fortified with MSM ([2]; 0.5% MSM, Hr 8): 2.84 logs
Log Growth of Bifidobacteruim bifidum in Media Fortified with MSM ([2]; 0.5% MSM, Hr 16): 7.45 logs
Log Growth of Bifidobacteruim bifidum in Media Fortified with MSM ([2]; 0.5% MSM, Hr 24): 8.81 logs
Log Growth of Bifidobacteruim bifidum in Media Fortified with MSM ([2]; 0.5% MSM, Hr 32): 11.22 logs
Log Growth of Bifidobacteruim bifidum in Media Fortified with MSM ([2]; 0.5% MSM, Hr 40): 12.09 logs
Log Growth of Bifidobacteruim bifidum in Media Fortified with MSM ([2]; 0.5% MSM, Hr 48): 9.39 logs
Log Growth of Bifidobacteruim bifidum in Media Fortified with MSM ([2]; 0.5% MSM, Hr 56): 9.51 logs
Log Growth of Bifidobacteruim bifidum in Media Fortified with MSM ([2]; 0.5% MSM, Hr 64): 10.34 logs
Log Growth of Bifidobacteruim bifidum in Media Fortified with MSM ([2]; 0.5% MSM, Hr 72): 8.35 logs
Log Growth of Bifidobacteruim bifidum in Media Fortified with MSM ([2]; 0.5% MSM, Hr 80): 10.38 logs
Log Growth of Bifidobacteruim bifidum in Media Fortified with MSM ([2]; 0.5% MSM, Hr 88): 9.70 logs
Log Growth of Bifidobacteruim bifidum in Media Fortified with MSM ([2]; 0.5% MSM, Hr 96): 8.82 logs
log growth ([2]; 0.5% MSM, hour 96): 8.82 logs
log growth (estimated, outside the countable range) ([2]; 1% MSM, Hour 96): less than 6 logs
Log Growth of Bifidobacteruim bifidum in Media Fortified with MSM ([2]; 1% MSM, Hr 0): 1.00 logs
Log Growth of Bifidobacteruim bifidum in Media Fortified with MSM ([2]; 1% MSM, Hr 8): 2.73 logs
Log Growth of Bifidobacteruim bifidum in Media Fortified with MSM ([2]; 1% MSM, Hr 16): 7.73 logs
Log Growth of Bifidobacteruim bifidum in Media Fortified with MSM ([2]; 1% MSM, Hr 24): 8.81 logs
Log Growth of Bifidobacteruim bifidum in Media Fortified with MSM ([2]; 1% MSM, Hr 32): 11.49 logs
Log Growth of Bifidobacteruim bifidum in Media Fortified with MSM ([2]; 1% MSM, Hr 40): 11.19 logs
Log Growth of Bifidobacteruim bifidum in Media Fortified with MSM ([2]; 1% MSM, Hr 48): 10.43 logs
Log Growth of Bifidobacteruim bifidum in Media Fortified with MSM ([2]; 1% MSM, Hr 56): 10.57 logs
Log Growth of Bifidobacteruim bifidum in Media Fortified with MSM ([2]; 1% MSM, Hr 64): 10.66 logs
Log Growth of Bifidobacteruim bifidum in Media Fortified with MSM ([2]; 1% MSM, Hr 72): 8.34 logs
Log Growth of Bifidobacteruim bifidum in Media Fortified with MSM ([2]; 1% MSM, Hr 80): 9.43 logs
Log Growth of Bifidobacteruim bifidum in Media Fortified with MSM ([2]; 1% MSM, Hr 88): 10.41 logs
Log Growth of Bifidobacteruim bifidum in Media Fortified with MSM ([2]; 1% MSM, Hr 96): <6.00 logs
Log Growth of Bifidobacteruim bifidum in Media Fortified with MSM ([2]; 5% MSM, Hr 0): 1.12 logs
Log Growth of Bifidobacteruim bifidum in Media Fortified with MSM ([2]; 5% MSM, Hr 8): 2.04 logs
Log Growth of Bifidobacteruim bifidum in Media Fortified with MSM ([2]; 5% MSM, Hr 16): 6.10 logs
Log Growth of Bifidobacteruim bifidum in Media Fortified with MSM ([2]; 5% MSM, Hr 24): 8.43 logs
Log Growth of Bifidobacteruim bifidum in Media Fortified with MSM ([2]; 5% MSM, Hr 32): 11.13 logs
Log Growth of Bifidobacteruim bifidum in Media Fortified with MSM ([2]; 5% MSM, Hr 40): 11.78 logs
Log Growth of Bifidobacteruim bifidum in Media Fortified with MSM ([2]; 5% MSM, Hr 48): 10.70 logs
Log Growth of Bifidobacteruim bifidum in Media Fortified with MSM ([2]; 5% MSM, Hr 56): 10.59 logs
Log Growth of Bifidobacteruim bifidum in Media Fortified with MSM ([2]; 5% MSM, Hr 64): 14.32 logs
Log Growth of Bifidobacteruim bifidum in Media Fortified with MSM ([2]; 5% MSM, Hr 72): 8.65 logs
Log Growth of Bifidobacteruim bifidum in Media Fortified with MSM ([2]; 5% MSM, Hr 80): 12.20 logs
Log Growth of Bifidobacteruim bifidum in Media Fortified with MSM ([2]; 5% MSM, Hr 88): 12.31 logs
Log Growth of Bifidobacteruim bifidum in Media Fortified with MSM ([2]; 5% MSM, Hr 96): 9.60 logs
Log Growth of Bifidobacteruim bifidum in Media Fortified with MSM ([2]; […] MSM, Hr 96): <6.00 logs
maximum reached before the control ([2]; all MSM concentrations): 16 h
Log Growth of 40% Milk Fat ([3]; 0.5% MSM, day 0): 0.00 logs
Log Growth of 40% Milk Fat ([3]; 0.5% MSM, day 7): 0.35 logs
Log Growth of 40% Milk Fat ([3]; 0.5% MSM, day 14): 2.32 logs
Log Growth of 40% Milk Fat ([3]; 0.5% MSM, day 21): 4.46 logs
Log Growth of 40% Milk Fat ([3]; 0.5% MSM, day 24): 4.02 logs
Log Growth of 40% Milk Fat ([3]; 0.5% MSM, day 28): 1.95 logs
Log Growth of 40% Milk Fat ([3]; 1.0% MSM, day 7): 0.00 logs
Log Growth of 40% Milk Fat ([3]; 1.0% MSM, day 14): 2.37 logs
Log Growth of 40% Milk Fat ([3]; 1.0% MSM, day 21): 4.35 logs
Log Growth of 40% Milk Fat ([3]; 1.0% MSM, day 24): 3.33 logs
Log Growth of 40% Milk Fat ([3]; 1.0% MSM, day 28): 3.86 logs
Log Growth ([3]; 2% Milk Fat, day 7): 1.59 log
Log Growth of 40% Milk Fat ([3]; 5.0% MSM, day 0): 0.00 logs
Log Growth of 40% Milk Fat ([3]; 5.0% MSM, day 7): 0.80 logs
Log Growth of 40% Milk Fat ([3]; 5.0% MSM, day 14): 0.50 logs
Log Growth of 40% Milk Fat ([3]; 5.0% MSM, day 21): 1.25 logs
Log Growth of 40% Milk Fat ([3]; 5.0% MSM, day 24): 1.03 logs
Log Growth of 40% Milk Fat ([3]; 5.0% MSM, day 28): 0.35 logs
Log Growth of 40% Milk Fat ([3]; 10.0% MSM, day 0): 0.00 logs
Log Growth of 40% Milk Fat ([3]; 10.0% MSM, day 7): 0.00 logs
Log Growth of 40% Milk Fat ([3]; 10.0% MSM, day 14): 1.95 logs
Log Growth of 40% Milk Fat ([3]; 10.0% MSM, day 21): 4.45 logs
Log Growth of 40% Milk Fat ([3]; 10.0% MSM, day 24): 0.85 logs
Log Growth of 40% Milk Fat ([3]; 10.0% MSM, day 28): 0.35 logs
lower than the control by ([3]; 40% milk product, Day 21, 5.0% MSM): 3.22 logs
microbial load ([3]; 40% milk product, Day 21, […] MSM): 2.16 logs
microbial count ([3]; 40% milk product, Day 28, 5.0% and 10.0% MSM): 0.35 logs
Log Growth ([3]; Nonfat Milk, day 7): 1.00 log
Log Growth of 40% Milk Fat ([3]; […] MSM, day 0): 0.00 logs
Log Growth of 40% Milk Fat ([3]; […] MSM, day 7): 0.00 logs
Log Growth of 40% Milk Fat ([3]; […] MSM, day 14): 0.00 logs
Log Growth of 40% Milk Fat ([3]; […] MSM, day 21): 2.16 logs
Log Growth of 40% Milk Fat ([3]; […] MSM, day 24): 3.79 logs
Log Growth of 40% Milk Fat ([3]; […] MSM, day 28): 0.95 logs
